Laboratory results: US20250339547A1, “MET BCL-XL INHIBITOR ANTIBODY-DRUG CONJUGATES AND METHODS OF USE THEREOF” (Novartis AG, priority 2022, published 2025)
One block for each compound: values may come before it. Non-standard residues stand in square brackets, D forms with d. Residues, ends and D or L forms follow the SMILES beside them. *: point of attachment. Dolaproine = CO[C@@H]([C@@H]1CCCN1)[C@@H](C)C(=O)O; Dil = CC[C@H](C)[C@H](NC)[C@@H](CC(=O)O)OC; X1 = C[C@@H](N*)[C@@H](O)c1ccccc1; NMeV = CN[C@H](C(=O)O)C(C)C

Key:
[1] = system: T-ALL (T-cell Acute Lymphoblastic Leukemia) and different types of solid tumors; settings: cited from earlier work
[2] = system: pancreatic cancer cell lines; assay: Pancreatic cancer cell line panel of Example 10 (CTG 120h); type: cell-based; settings: pancreatic cancer cell lines of Table 16, single agents
Experimental: Cell lines were cultured in the media described above at 37° C. in a humidified atmosphere containing 5% CO2. […] When in 1:1 combination, both the combining partner (Paclitaxel, Trametinib or Gemcitabine) and the mAb or ADC were serially diluted (9 concentrations each, triplicates). Effect on cell viability was assessed after 5 days of incubation at 37° C./5% CO2 by quantification of cellular ATP levels using CellTiter-Glo reagent (Promega Ref: G7571) at 75 μL reagent/well. All the conditions were tested in triplicates. Luminescence was quantified on a multipurpose plate reader. IC50s were calculated using standard four-parametric curve fitting. […] Two independent experiments were performed (N1 and N2).

Panc 10.05 = assay: Pancreatic cancer cell line viability, single agent or 1:1 combination (CTG 120h), Example 10; type: cell-based; settings: Homo sapiens, Panc1005, 120 h, Panc 10.05, CTG 120 h
Experimental: (§1) Cell lines were cultured in the media described above at 37° C. in a humidified atmosphere containing 5% CO2. Cells were seeded in 96 well clear bottom plates (96 well clear-bottom, white, Corning reference 3903) and exposed to the mAbs or ADCs as single agents or in 1:1 combination with Paclitaxel, Trametinib or Gemcitabine. When in 1:1 combination, both the combining partner (Paclitaxel, Trametinib or Gemcitabine) and the mAb or ADC were serially diluted (9 concentrations each, triplicates). Effect on cell viability was assessed after 5 days of incubation at 37° C./5% CO2 by quantification of cellular ATP levels using CellTiter-Glo reagent (Promega Ref: G7571) at 75 μL reagent/well. All the conditions were tested in triplicates. Luminescence was quantified on a multipurpose plate reader. IC50s were calculated using standard four-parametric curve fitting. IC50 is defined as the compound concentration at which the CTG signal is reduced to 50% of that measured for the control. Two independent experiments were performed (N1 and N2).

Hs766T = assay: as above; type: cell-based
Experimental: as §1

AsPC-1 = assay: as above; type: cell-based; settings: Homo sapiens, ASPC1, 120 h, AsPC-1, CTG 120 h
Experimental: as §1

BxPC-3 = assay: as above; type: cell-based; settings: Homo sapiens, BXPC-3, 120 h, BxPC-3, CTG 120 h
Experimental: as §1

KP-4 = assay: as above; type: cell-based; settings: Homo sapiens, KP-4, 120 h, KP-4, CTG 120 h
Experimental: as §1

CALU1 = assay: Lung cancer cell line viability, single agent or 1:1 combination (CTG 120h), Example 7; type: cell-based; settings: CALU1, CTG 120 h
Experimental: (§2) Cell lines were cultured in the media described above at 37° C. in a humidified atmosphere containing 5% CO2. Cells were seeded in 96 well clear bottom plates (96 well clear-bottom, white, Corning reference 3903) and exposed to the mAbs, mAbs mixture, ADCs or ADCs mixture as single agents or in 1:1 combination with Paclitaxel. When in 1:1 combination, both the combining partner (Paclitaxel) and the mAb, mAb mixture, ADC or ADC mixture were serially diluted (9 concentrations each, triplicates). Effect on cell viability was assessed after 5 days of incubation at 37° C./5% CO2 by quantification of cellular ATP levels using CellTiter-Glo reagent (Promega Ref: G7571) at 75 μL reagent/well. All the conditions were tested in triplicates. Luminescence was quantified on a multipurpose plate reader. IC50s were calculated using standard four-parametric curve fitting. IC50 is defined as the compound concentration at which the CTG signal is reduced to 50% of that measured for the control. Two independent experiments were performed (N1 and N2).

LU65 = assay: as above; type: cell-based; settings: LU65, CTG 120 h
Experimental: as §2

HCC827 = assay: as above; type: cell-based; settings: HCC827, CTG 120 h
Experimental: as §2

NCI-H441 = assay: as above; type: cell-based; settings: NCI-H441, CTG 120 h
Experimental: as §2

NCI-H1975 = assay: as above; type: cell-based; settings: NCI-H1975, CTG 120 h
Experimental: as §2

HCC78 = assay: as above; type: cell-based; settings: HCC78, CTG 120 h
Experimental: as §2

HCC366 = assay: as above; type: cell-based; settings: HCC366, CTG 120 h
Experimental: as §2

NCI-H1838 = assay: as above; type: cell-based; settings: NCI-H1838, CTG 120 h
Experimental: as §2

HCC4006 = assay: as above; type: cell-based; settings: HCC4006, CTG 120 h
Experimental: as §2

H1650 xenografts = assay: In vivo efficacy in combination with osimertinib in Met non amplified NCI-H1650 lung adenocarcinoma human cell model, Example 16; set-up: species or system SCID mice; settings: osimertinib 15 mg/kg orally on day 1, 2, 3, 4, 7, 8, 9, alone
Excerpt: Below are the procedures for determining the in vivo therapeutic effect of different Bcl-xL ADCs targeting the Met protein as a single agent or in combination with osimertinib. Their activities are compared to the corresponding naked anti-Met mAbs or Ab G-L42C-P25 (Isotype control/non-targeting ADC) formulated in Phosphate-Buffered Saline (PBS) in a Met non amplified NCI-H1650 lung adenocarcinoma human cell line after intravenous (IV) administration.
NCI-H1650 cells, obtained from ATCC, were cultured in RPMI supplemented with 10% SBS, 1% Penicillin-Streptomycin and 1% HEPES. Cells were resuspended in 50% Matrigel® (Corning®) and 0.1 ml containing 10×10^6 cells were subcutaneously inoculated into the right flank of female SCID mice, provided by JANVIER labs.
When tumors reached the appropriate volume (100-200 mm3), mice were randomized, 6 animals per group, using Easy stat software. […]
Mice body weight was monitored 3 times a week and tumor size measured using electronic calipers. […] The last day with at least half of control animals still present in the study (d25), tumor growth inhibition was calculated using the formula: […]
With DTV (Delta Tumor Volume) at Dx, calculated being TV at Dx−TV at Randomization. […]

lymphocyte proliferation = settings: in vitro; cited from earlier work
arthritis and lupus = settings: mice, animal models of arthritis and lupus; cited from earlier work
[3] = system: allogeneic T- and B-cell responses; settings: after skin transplantation; cited from earlier work
allogeneic T-cell = settings: in vitro; cited from earlier work
lymphoid malignancies = settings: cited from earlier work
[4] = system: hematological malignancies and solid tumors; settings: several hematological malignancies and solid tumors; cited from earlier work

Structure (SMILES): Cc1c(-c2ccc(N3CCc4cccc(C(=O)Nc5nc6ccccc6s5)c4C3)nc2C(=O)O)cnn1CC12CC3CC(CC(C3)C1)C2 [A-1331852]
in vivo activity in pre-clinical models [1]: exhibited in vivo activity

IC50 (Panc 10.05; mean): 57.5 nM | IC50 (Panc 10.05; n1): 32.4 nM | IC50 (Panc 10.05; n2): 82.6 nM | IC50 (Hs766T; mean): 2.82 nM | IC50 (Hs766T; n1): 2.53 nM | IC50 (Hs766T; n2): 3.1 nM | IC50 (AsPC-1; mean): 9.81 nM | IC50 (AsPC-1; n1): 9.01 nM | IC50 (AsPC-1; n2): 10.6 nM | IC50 (BxPC-3; mean): 11.7 nM | IC50 (BxPC-3; n1): 8.21 nM | IC50 (BxPC-3; n2): 15.2 nM | IC50 (KP-4; mean): 1660 nM | IC50 (KP-4; n1): 620 nM | IC50 (KP-4; n2): 2710 nM
Structure (SMILES): CC(=O)Nc1cccc(-n2c(=O)n(C3CC3)c(=O)c3c(Nc4ccc(I)cc4F)n(C)c(=O)c(C)c32)c1 [Trametinib, N-(3-{3-cyclopropyl-5-[(2-fluoro-4-iodophenyl)amino]-6,8-dimethyl-2,4,7-trioxo-3,4,6,7-tetrahydropyrido[4,3-d]pyrimidin-1(2H)-yl}phenyl)acetamide]
effect on the viability [2]: induced dose dependent decrease in cell viability with measurable IC50 for most of the cell lines

IC50 (Panc 10.05; mean): 68.3 nM | IC50 (Panc 10.05; n1): 58.8 nM | IC50 (Panc 10.05; n2): 77.9 nM | IC50 (Hs766T; mean): > 30000 nM | IC50 (Hs766T; n1): > 30000 nM | IC50 (Hs766T; n2): > 30000 nM | IC50 (AsPC-1; mean): 241 nM | IC50 (AsPC-1; n1): 406 nM | IC50 (AsPC-1; n2): 75.2 nM | IC50 (BxPC-3; mean): 13 nM | IC50 (BxPC-3; n1): 10.7 nM | IC50 (BxPC-3; n2): 15.3 nM | IC50 (KP-4; mean): 10.9 nM | IC50 (KP-4; n1): 9.74 nM | IC50 (KP-4; n2): 12 nM
Structure (SMILES): Nc1ccn([C@@H]2O[C@H](CO)[C@@H](O)C2(F)F)c(=O)n1 [Gemcitabine, gemcitabine]
effect on the viability [2]: induced dose dependent decrease in cell viability with measurable IC50 for most of the cell lines

Structure (SMILES): CC[C@H](C)[C@@H]([C@@H](CC(=O)N1CCC[C@H]1[C@H](OC)[C@@H](C)C(=O)N[C@H](C)[C@@H](O)c1ccccc1)OC)N(C)C(=O)[C@@H](NC(=O)[C@@H](NC)C(C)C)C(C)C [MMAE, monomethyl auristatin E] (H-[NMeV]V[Dil][Dolaproine]-X1)
IC50 (CALU1; Mean): 1.01 nM | IC50 (CALU1; n1): 0.64 nM | IC50 (CALU1; n2): 1.37 nM | IC50 (LU65; Mean): 0.83 nM | IC50 (LU65; n1): 0.7 nM | IC50 (LU65; n2): 0.96 nM | IC50 (HCC827; Mean): 1.3 nM | IC50 (HCC827; n1): 1.46 nM | IC50 (HCC827; n2): 1.15 nM | IC50 (NCI-H441; Mean): 0.38 nM | IC50 (NCI-H441; n1): 0.4 nM | IC50 (NCI-H441; n2): 0.36 nM | IC50 (NCI-H1975; Mean): 0.25 nM | IC50 (NCI-H1975; n1): 0.25 nM | IC50 (HCC78; Mean): 0.57 nM | IC50 (HCC78; n1): 0.54 nM | IC50 (HCC78; n2): 0.6 nM | IC50 (HCC366; Mean): 0.645 nM | IC50 (HCC366; n1): 0.53 nM | IC50 (HCC366; n2): 0.76 nM | IC50 (NCI-H1838; Mean): 60.1 nM | IC50 (NCI-H1838; n1): 88.2 nM | IC50 (NCI-H1838; n2): 32 nM | IC50 (HCC4006; Mean): 0.19 nM | IC50 (HCC4006; n1): 0.12 nM | IC50 (HCC4006; n2): 0.26 nM

Structure (SMILES): C=CC(=O)Nc1cc(Nc2nccc(-c3cn(C)c4ccccc34)n2)c(OC)cc1N(C)CCN(C)C [Osimertinib, osimertinib]
TGI % (d 25) (H1650 xenografts): 86.3%

Structure (SMILES): CN(C)CC[C@H](CSc1ccccc1)Nc1ccc(S(=O)(=O)NC(=O)c2ccc(N3CCN(Cc4ccccc4-c4ccc(Cl)cc4)CC3)cc2)cc1[N+](=O)[O-] [ABT-737]
inhibition of lymphocyte proliferation (lymphocyte proliferation): potent inhibition | disease severity (arthritis and lupus): significant decrease in disease severity | allogeneic T- and B-cell responses [3]: inhibited | allogeneic T-cell activation, proliferation, and cytotoxicity (allogeneic T-cell): prevented

Structure (SMILES): CC1(C)CCC(c2ccc(Cl)cc2)=C(CN2CCN(c3ccc(C(=O)NS(=O)(=O)c4ccc(N[C@H](CCN5CCOCC5)CSc5ccccc5)c(S(=O)(=O)C(F)(F)F)c4)cc3)CC2)C1 [ABT-263, navitoclax]
antitumor activity in clinical studies (lymphoid malignancies): objective antitumor activity | activity in pre-clinical models [4]: has shown activity

Structure (SMILES): CN(C)CC#Cc1ccc(OCCCc2sc(N3CCc4cccc(C(=O)Nc5nc6ccccc6s5)c4C3)nc2C(=O)O)c(F)c1 [A-1155463]
in vivo activity in pre-clinical models [1]: exhibited in vivo activity
